Assay results taken from patent US20040034019A1, “Piperazine and piperidine derivatives” (priority 2002, published 2004).
Counter-ions that a name gives are not always drawn.

System: rat embryo ventral mesencephalic cells
Test: Neuroprotection assay (NMDA neuroexcitotoxic injury, high affinity 3H-dopamine uptake)
Assay type: cell-based, Sprague-Dawley rat
Details: embryonic day 15 rat VM cell culture, NMDA (100-400 μM) for 20 hours
Description: The neuroprotective activity of the compounds of this invention may be assayed using rat embryo ventral mesencephalic cells in culture which are subsequently exposed to the glutamate receptor agonist NMDA. This assay is described in detail in the example section.
The ventral mesencephalic region was dissected out of embryonic day 15 Sprague-Dawley rat embryos (Harlan), dissociated into single cell suspension by a combination of trypsinization and trituration (Costantini et al., Neurobiol Dis., pp. 97-106 (1998). Dissociated VM cells were plated into poly-L-ornithine-coated 96-well plates at a density of 85,000 cells/well in 100 uL of DMEM supplemented with 18% heat-inactivated horse serum, 0.24% glucose, 2 mM glutamine and 50 u/ml penicillin/streptomycin and incubated in a 5% CO2 incubator. After one day in culture (DIV1), the medium was replaced with 100 μL of a defined medium (DMEM supplemented with 1× N2 cocktail (Gibco-BRL), 0.12% glucose, 2 mM glutamine, and 50 units/ml penicillin/streptomycin) containing DMSO or various concentrations of the compounds of this invention. On DIV5, neuroexcitotoxic injury was induced by the addition of various concentrations of the glutamate receptor agonist NMDA (100-400 μM). Cultures were incubated with the neurotoxin for 20 hours and the effects of neurophilin compounds were assessed using high affinity ^3H-dopamine uptake according to a procedure published by Park and Mytilineou [Brain Res., 599, pp. 83-97 (1992)].

SMILES	EC50 [nM]
O=C([C@@H]1CCCN1Cc1ccc(F)c(F)c1)N1CCC(Cc2ccc(F)cc2)CC1 [Compound 277]	< 100
C[C@@]1(C(=O)N2CCN(C(c3ccc(F)cc3)c3ccc(F)cc3)CC2)CCCN1Cc1ccccc1 [Compound 245]	100 to 500
CCN1CCCC[C@H]1C(=O)N1CCN(CCCc2ccccc2)CC1 [Compound 70, ((2S)-1-Ethylpiperidin-2-yl)-[4-(3-phenylpropyl)-piperazin-1-yl]-methanone dihydrochloride]	100 to 500
O=C([C@@H]1CCCN1Cc1ccccc1)N1CCN(C(c2ccccc2)c2ccccc2)CC1 [Compound 7]	< 100
CCN1CCCC[C@H]1C(=O)N1CCN(C(c2ccccc2)c2ccc(F)cc2)CC1 (stereo partly drawn) [Compound 42, ((2S)-1-Ethylpiperidin-2-yl)-{4-[(4-fluorophenyl)phenylmethy]-piperazin-1-yl}-methanone dihydrochloride]	< 100
CCN1CCCC[C@H]1C(=O)N1CCN(c2ccccn2)CC1 [Compound 2]	> 500
CN1CSC(C)(C)[C@@H]1C(=O)N1CCN(C(c2ccc(F)cc2)c2ccc(F)cc2)CC1 [Compound 230]	> 500
CCN1CSC[C@H]1C(=O)N1CCC(Cc2ccccc2)CC1 [Compound 244]	> 500
CN1CCC(C(=O)N2CCN(C(c3ccccc3)c3ccccc3)CC2)CC1 [Compound 11]	> 500
CN1[C@@H](C(=O)N2CCN(C(c3ccc(F)cc3)c3ccc(F)cc3)CC2)CC[C@H]1c1ccccc1 [Compound 222]	> 500
CCN1CCCC[C@H]1C(=O)N1CCN(Cc2cccs2)CC1 [Compound 73, ((2S)-1-Ethylpiperidin-2-yl)-(4-thiophen-2-ylmethylpiperazin-1-yl)-methanone dihydrochloride]	> 500
CN1CSC(C)(C)[C@@H]1C(=O)N1CCC(Cc2ccccc2)CC1 [Compound 228]	> 500
O=C([C@@H]1CCCN1CCc1ccccc1)N1CCC(Cc2ccc(F)cc2)CC1 [Compound 273]	< 100
